Data on 23 compounds can be found in US9096558B2, “N-sulfonylbenzamide compounds” (Pfizer Limited, priority 2010, dated 2015).

Counter-ions that a name gives are not always drawn.

T1 sequence (Q15858 whole entry): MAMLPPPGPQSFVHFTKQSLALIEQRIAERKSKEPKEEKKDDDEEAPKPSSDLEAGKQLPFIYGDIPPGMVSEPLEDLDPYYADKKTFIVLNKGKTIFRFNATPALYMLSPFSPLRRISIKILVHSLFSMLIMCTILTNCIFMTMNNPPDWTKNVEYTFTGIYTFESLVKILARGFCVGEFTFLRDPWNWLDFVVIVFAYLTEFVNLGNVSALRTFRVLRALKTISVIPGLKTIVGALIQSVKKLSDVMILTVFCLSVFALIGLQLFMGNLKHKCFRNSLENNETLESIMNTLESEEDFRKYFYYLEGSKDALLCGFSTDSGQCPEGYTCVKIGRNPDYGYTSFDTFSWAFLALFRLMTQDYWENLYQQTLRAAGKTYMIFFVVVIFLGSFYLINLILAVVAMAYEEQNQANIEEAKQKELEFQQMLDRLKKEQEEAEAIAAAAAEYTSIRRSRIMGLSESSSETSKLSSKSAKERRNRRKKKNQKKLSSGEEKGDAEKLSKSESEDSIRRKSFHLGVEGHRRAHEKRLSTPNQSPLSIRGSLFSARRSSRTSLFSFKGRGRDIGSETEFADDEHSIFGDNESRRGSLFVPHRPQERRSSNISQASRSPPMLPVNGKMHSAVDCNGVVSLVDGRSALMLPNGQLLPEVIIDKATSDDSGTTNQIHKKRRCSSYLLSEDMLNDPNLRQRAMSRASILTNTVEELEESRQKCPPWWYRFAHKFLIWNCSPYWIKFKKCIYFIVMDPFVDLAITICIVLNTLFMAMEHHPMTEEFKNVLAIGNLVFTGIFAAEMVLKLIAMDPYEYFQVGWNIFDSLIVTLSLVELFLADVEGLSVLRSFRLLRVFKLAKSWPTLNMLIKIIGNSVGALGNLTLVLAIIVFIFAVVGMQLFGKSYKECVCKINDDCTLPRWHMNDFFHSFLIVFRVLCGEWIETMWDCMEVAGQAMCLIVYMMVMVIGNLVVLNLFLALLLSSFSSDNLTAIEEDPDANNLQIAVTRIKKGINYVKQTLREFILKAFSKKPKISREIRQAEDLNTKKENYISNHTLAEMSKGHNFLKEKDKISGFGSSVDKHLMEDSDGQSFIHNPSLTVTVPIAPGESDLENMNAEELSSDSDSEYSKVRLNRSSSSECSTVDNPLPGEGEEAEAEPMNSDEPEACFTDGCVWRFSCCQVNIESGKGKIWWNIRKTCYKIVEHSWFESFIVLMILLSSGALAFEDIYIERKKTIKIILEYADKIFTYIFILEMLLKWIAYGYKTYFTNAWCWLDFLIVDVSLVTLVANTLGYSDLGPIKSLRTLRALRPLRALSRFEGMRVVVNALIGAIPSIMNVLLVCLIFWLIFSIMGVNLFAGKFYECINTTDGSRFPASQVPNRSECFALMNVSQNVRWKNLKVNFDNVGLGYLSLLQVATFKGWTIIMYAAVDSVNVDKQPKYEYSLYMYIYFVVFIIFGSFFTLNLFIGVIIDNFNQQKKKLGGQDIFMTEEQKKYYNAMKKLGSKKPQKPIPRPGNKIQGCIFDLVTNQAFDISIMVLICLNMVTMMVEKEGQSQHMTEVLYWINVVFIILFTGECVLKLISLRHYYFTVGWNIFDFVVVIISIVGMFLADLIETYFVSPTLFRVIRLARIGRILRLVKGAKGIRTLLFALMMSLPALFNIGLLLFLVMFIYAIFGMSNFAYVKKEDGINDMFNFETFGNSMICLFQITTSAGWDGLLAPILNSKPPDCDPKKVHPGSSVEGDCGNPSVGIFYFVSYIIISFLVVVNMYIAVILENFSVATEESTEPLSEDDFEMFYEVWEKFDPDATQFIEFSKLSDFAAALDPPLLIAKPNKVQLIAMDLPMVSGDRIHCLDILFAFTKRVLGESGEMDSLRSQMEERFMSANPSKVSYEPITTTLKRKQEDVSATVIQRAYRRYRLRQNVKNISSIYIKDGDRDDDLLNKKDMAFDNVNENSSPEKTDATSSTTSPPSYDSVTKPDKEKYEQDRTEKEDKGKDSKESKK

This assay addresses T1, Nav1.7 (or SCN9A) channel (Homo sapiens, UniProt Q15858).
T1 construct: expressed in transfected cells
The assay can be described thus: Nav1.7 (hSCN9A) PatchXpress electrophysiology assay. The format is cell-based. Conditions: estimated IC50 calculated from single point electrophysiology data; PatchXpress platform; HEK cells stably expressing hSCN9A; held at V1/2 of inactivation; read-out: Nav1.7 EIC50. On the procedure: The ability of the compounds of formula (I) to block the Nav1.7 (or SCN9A) channel were measured using the assay described below.
Human Embryonic Kidney (HEK) cells were transfected with an hSCN9A construct using lipofectamine reagent (Invitrogen), using standard techniques. Cells stably expressing the hSCN9A constructs were identified by their resistance to G-418 (400 μg/ml). Clones were screened for expression using the whole-cell voltage-clamp technique.
HEK cells stably transfected with hSCN9A were maintained in DMEM medium supplemented with 10% heat-inactivated fetal bovine serum and 400 μg/ml G-418 in an incubator at 37° C. with a humidified atmosphere of 10% CO2. For HTS, cells were harvested from flasks by trypsinization and replated in an appropriate multi-well plate (typically 96 or 384 wells/plate) such that confluence would be achieved within 24 hours of plating. For electrophysiological studies, cells were removed from the culture flask by brief trypsinization and re-plated at low density onto glass cover slips. Cells were typically used for electrophysiological experiments within 24 to 72 hours after plating.
Cover slips containing HEK cells expressing hSCN9A were placed in a bath on the stage of an inverted microscope and perfused (approximately 1 ml/minutes) with extracellular solution of the following composition: 138 mM NaCl, 2 mM CaCl2, 5.4 mM KCl, 1 mM MgCl2, 10 mM glucose, and 10 mM HEPES, pH 7.4, with NaOH. […] The osmolarity of the extracellular and intracellular solutions was 300 mOsm/kg and 295 mOsm/kg, respectively. All recordings were made at room temperature (22-24° C.) using AXOPATCH 200B amplifiers and PCLAMP software (Axon Instruments, Burlingame, Calif.).
hSCN9A currents in HEK cells were measured using the whole-cell configuration of the patch-clamp technique (Hamill et al., 1981). Uncompensated series resistance was typically 2 to 5 mega ohms and >85% series resistance compensation was routinely achieved. As a result, voltage errors were negligible and no correction was applied. Current records were acquired at 20 to 50 KHz and filtered at 5 to 10 KHz.
HEK cells stably transfected with hSCN9A were viewed under Hoffman contrast optics and placed in front of an array of flow pipes emitting either control or compound-containing extracellular solutions. All compounds were dissolved in dimethyl sulfoxide to make 10 mM stock solutions, which were then diluted into extracellular solution to attain the final concentrations desired. […] The voltage-dependence of inactivation was determined by applying a series of depolarizing prepulses (8 sec long in 10 mV increments) from a negative holding potential. The voltage was then immediately stepped to 0 mV to assess the magnitude of the sodium current. Currents elicited at 0 mV were plotted as a function of prepulse potential to allow estimation of the voltage at which 50% of the channels were inactivated (midpoint of inactivation or V½). Compounds were tested for their ability to inhibit hSCN9A sodium channels by activating the channel with a 20 msec voltage step to 0 mV following an 8 second conditioning prepulse to the empirically determined V½. Compound effect (% inhibition) was determined by difference in current amplitude before and after application of test compounds. For ease of comparison, “estimated IC-50” (EIC50) values were calculated from single point electrophysiology data by the following equation, (tested concentration, uM)×(100-% inhibition/% inhibition). Inhibition values <20% and >80% were excluded from the calculation.
Electrophysiological assays were conducted with PatchXpress 7000 hardware and associated software (Molecular Devices Corp). All assay buffers and solutions were identical to those used in conventional whole-cell voltage clamp experiments described above. hSCN9A cells were grown as above to 50%-80% confluency and harvested by trypsinization. […]
With `O=S(=O)(Nc1nncs1)c1cc(Cl)c(Sc2cccc(F)c2)cc1F` [Example 6, 5-chloro-2-fluoro-4-[(3-fluorophenyl)thio]-N-1,3,4-thiadiazol-2-ylbenzenesulfonamide], the IC50 is 3300 nM. Regarding `N#Cc1cc(S(=O)(=O)Nc2ncns2)ccc1Cc1ccc(C(F)(F)F)cc1-c1ccnnc1` [Example 22, 3-Cyano-4-[2-pyridazin-4-yl-4-(trifluoromethyl)benzyl]-N-1,2,4-thiadiazol-5-ylbenzenesulfonamide], the IC50 was 140 nM. Consider `Nc1cc(-c2cc(C(F)(F)F)ccc2Sc2cc(F)c(S(=O)(=O)Nc3ncccn3)cc2Cl)ccn1` [Example 24, 4-{[2-(2-Aminopyridin-4-yl)-4-(trifluoromethyl)phenyl]thio}-5-chloro-2-fluoro-N-pyrimidin-2-ylbenzenesulfonamide], for which the IC50 is 72 nM. For the compound `O=S(=O)(Nc1nncs1)c1cc(Cl)c(Sc2ccc(F)c(F)c2)cc1F` [Example 9, 5-chloro-4-[(3,4-difluorophenyl)thio]-2-fluoro-N-1,3,4-thiadiazol-2-ylbenzenesulfonamide], the IC50 was 2300 nM.

Turning to `COc1ccccc1Sc1cc(F)c(S(=O)(=O)Nc2nncs2)cc1Cl` [Example 8, 5-chloro-2-fluoro-4-[(2-methoxyphenyl)thio]-N-1,3,4-thiadiazol-2-ylbenzenesulfonamide], the IC50 was 250 nM. Turning to `O=S(=O)(Nc1nncs1)c1cc(Cl)c(Sc2ccc(C(F)(F)F)cc2)cc1F` [Example 10, 5-chloro-2-fluoro-N-1,3,4-thiadiazol-2-yl-4-{[4-(trifluoromethyl)phenyl]thio}benzenesulfonamide], the IC50 was 5200 nM. `COc1cccc(Sc2ccc(S(=O)(=O)Nc3ncns3)cc2C#N)c1` [Example 3, 3-Cyano-4-[(3-methoxyphenyl)thio]-N-1,2,4-thiadiazol-5-ylbenzenesulfonamide]: the IC50 was 1000 nM. The figure for `COc1cc(C(F)(F)F)ccc1Cc1ccc(S(=O)(=O)Nc2ncns2)cc1C#N` [Example 21, 3-Cyano-4-[2-methoxy-4-(trifluoromethyl)benzyl]-N-1,2,4-thiadiazol-5-ylbenzenesulfonamide] is 5.8 nM.

For `O=S(=O)(Nc1nncs1)c1cc(Cl)c(Sc2ccccc2F)cc1F` [Example 7, 5-chloro-2-fluoro-4-[(2-fluorophenyl)thio]-N-1,3,4-thiadiazol-2-ylbenzenesulfonamide], the IC50 is 3700 nM. In the case of `COc1ccccc1Sc1ccc(S(=O)(=O)Nc2ncns2)cc1C#N` [Example 12, 3-cyano-4-[(2-methoxyphenyl)thio]-N-1,2,4-thiadiazol-5-ylbenzenesulfonamide], the IC50 is 320 nM. The figure for `COc1ccc(Sc2cc(F)c(S(=O)(=O)Nc3nncs3)cc2Cl)cc1` [Example 2, 5-Chloro-2-fluoro-4-[(4-methoxyphenyl)thio]-N-1,3,4-thiadiazol-2-ylbenzenesulfonamide] is 2100 nM; for `N#Cc1cc(S(=O)(=O)Nc2ncns2)ccc1Sc1ccccc1F` [Example 15, 3-Cyano-4-[(2-fluorophenyl)thio]-N-1,2,4-thiadiazol-5-ylbenzenesulfonamide] it is 920 nM; for `N#Cc1cc(S(=O)(=O)Nc2ncns2)ccc1Sc1cccc(C(F)(F)F)c1` [Example 13, 3-cyano-N-1,2,4-thiadiazol-5-yl-4-{[3-(trifluoromethyl)phenyl]thio}benzenesulfonamide] it is 840 nM. Consider `N#Cc1cc(S(=O)(=O)Nc2ncns2)ccc1Sc1ccc(F)c(F)c1` [Example 17, 3-Cyano-4-[(3,4-difluorophenyl)thio]-N-1,2,4-thiadiazol-5-ylbenzenesulfonamide], for which the IC50 was 2200 nM. For `N#Cc1cc(S(=O)(=O)Nc2ncns2)ccc1Sc1ccc(C(F)(F)F)cc1` [Example 14, 3-cyano-N-1,2,4-thiadiazol-5-yl-4-{[4-(trifluoromethyl)phenyl]thio}benzenesulfonamide] the value was 190 nM; for `COc1cccc(Sc2cc(F)c(S(=O)(=O)Nc3nncs3)cc2Cl)c1` [Example 4, 5-chloro-2-fluoro-4-[(3-methoxyphenyl)thio]-N-1,3,4-thiadiazol-2-ylbenzenesulfonamide], 1900 nM; for `O=S(=O)(Nc1nncs1)c1cc(Cl)c(Sc2cccc(C(F)(F)F)c2)cc1F` [Example 1, 5-Chloro-2-fluoro-N-1,3,4-thiadiazol-2-yl-4-{[3-(trifluoromethyl)phenyl]thio}benzenesulfonamide], 930 nM. The figure for `COc1ccc(Sc2ccc(S(=O)(=O)Nc3ncns3)cc2C#N)cc1` [Example 11, 3-cyano-4-[(4-methoxyphenyl)thio]-N-1,2,4-thiadiazol-5-ylbenzenesulfonamide] is above 3000 nM; for `O=S(=O)(Nc1nncs1)c1cc(Cl)c(Sc2ccc(C(F)(F)F)cc2-c2ccnnc2)cc1F` [Example 19, 5-Chloro-2-fluoro-4-{[2-pyridazin-4-yl-4-(trifluoromethyl)phenyl]thio}-N-1,3,4-thiadiazol-2-ylbenzenesulfonamide] it is 45 nM; for `N#Cc1cc(S(=O)(=O)Nc2ncns2)ccc1Sc1ccc(C(F)(F)F)cc1-c1ccnnc1` [Example 18, 3-Cyano-4-{[2-pyridazin-4-yl-4-(trifluoromethyl)phenyl]thio}-N-1,2,4-thiadiazol-5-ylbenzenesulfonamide] it is 70 nM. The figure for `N#Cc1cc(S(=O)(=O)Nc2ncns2)ccc1Sc1ccccc1C(F)(F)F` [Example 16, 3-Cyano-N-1,2,4-thiadiazol-5-yl-4-{[2-(trifluoromethyl)phenyl]thio}benzenesulfonamide] is 930 nM; for `O=S(=O)(Nc1nncs1)c1cc(Cl)c(Sc2ccccc2C(F)(F)F)cc1F` [Example 5, 5-chloro-2-fluoro-N-1,3,4-thiadiazol-2-yl-4-{[2-(trifluoromethyl)phenyl]thio}benzenesulfonamide] it is 5080 nM; for `Nc1cc(-c2cc(C(F)(F)F)ccc2Sc2cc(F)c(S(=O)(=O)Nc3nncs3)cc2Cl)ccn1` [Example 20, 4-{[2-(2-Aminopyridin-4-yl)-4-(trifluoromethyl)phenyl]thio}-5-chloro-2-fluoro-N-1,3,4-thiadiazol-2-ylbenzenesulfonamide hydrochloride] it is 33 nM.
